From patent US9765039B2, “Biaryl derivatives as bromodomain inhibitors” (Zenith Epigenetics Ltd., priority 2012, dated 2017)

Legend:
[1] = test system: hMCP-1 mRNA; experiment: Inhibition of hMCP-1 mRNA transcription in human peripheral blood mononuclear cells; assay type: cell-based; parameters: key: Active: Compounds with an IC50 value less than 30 μM were deemed to be active.; Not Active: Compounds with an IC50 value less than 30 μM were deemed to be active; settings: 3 h
Description: In this example, hMCP-1 mRNA in human peripheral blood mononuclear cells was quantitated to measure the transcriptional inhibition of hMCP-1 when treated with a compound of the present disclosure.
Human Peripheral Blood Mononuclear Cells were plated (1.0×10^5 cells per well) in a 96-well plate in 45 μL RPMI-1640 containing 10% FBS and penicillin/streptomycin. The cells were treated with the test compound (45 μL at 2× concentration), and then the cells were incubated at 37° C. for 3 h before the cells were harvested. At time of harvest, cells were transferred to V-bottom plates and centrifuged at 800 rpm for 5 minutes. Spent media was removed and cell lysis solution (70 μL) was added the cells in each well and incubated for 5-10 min at room temperature, to allow for complete cell lysis and detachment. mRNA was then prepared using the “mRNA Catcher PLUS plate” (Invitrogen), according to the protocol supplied. After the last wash, as much wash buffer as possible was aspirated without allowing the wells to dry. […]
The eluted mRNA isolated was then used in a one-step quantitative real-time PCR reaction, using components of the Ultra Sense Kit together with Applied Biosystems primer-probe mixes. Real-time PCR data was analyzed, normalizing the Ct values for hMCP-1 to an internal control, prior to determining the fold induction of each unknown sample, relative to the control.

[2] = target: T1, Brd4 bromodomain 1 (Homo sapiens, UniProt O60885); experiment: Inhibition of tetra-acetylated histone H4 binding to BET bromodomains (TR-FRET); parameters: key: Active: Compounds with an IC50 value less than 30 μM were deemed to be active.; Not Active: Compounds with an IC50 value less than 30 μM were deemed to be active; settings: first bromodomain of Brd4, tetra-acetylated histone H4 peptide
T1 construct: made in house; host or cells: E. coli BL21(DE3)
How it was run: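 TR-FRET with N-terminally His-tagged bromodomains (200 nM, E. coli-expressed, Ni affinity and SEC-purified) and biotinylated tetra-acetylated histone H4 peptide (25–50 nM), detected with Eu-cryptate streptavidin and XL665 anti-His antibody. Buffer 30 mM HEPES pH 7.4, 320 mM KF, 0.08% BSA, 0.2% DMSO; 2 h RT. IC50 from decrease in 665/620 nm ratio.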

[3] = test system: c-myc; experiment: Inhibition of c-myc expression in cancer cell lines (mRNA, real-time PCR); assay type: cell-based; parameters: key: Active: Compounds with an IC50 value less than 30 μM were deemed to be active; settings: Human AML MV4-11 cells, 3 hours
How it was run: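 MV4-11 cells (2.5×10^4) exposed to compound or 0.1% DMSO for 3 h at 37° C, then lysed for mRNA isolation. c-myc and cyclophilin cDNAs co-amplified by duplex RT real-time PCR. IC50 from dose-response curve.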

[4] = test system: hApoA-1 mRNA; experiment: Up-regulation of hApoA-1 mRNA transcription in Huh7 cells; assay type: cell-based, human; parameters: key: Active: Compounds with an EC170 value less than 30 μM are deemed to be active.; Not Active: Compounds with an EC170 value less than 30 μM are deemed to be active; settings: 48 hrs treatment, ApoA-I mRNA
How it was run: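 Huh7 cells plated 24 h before compound, then treated 48 h; mRNA isolated from lysates and ApoA-I quantified by one-step real-time PCR. Fold induction derived from Ct values relative to the matching DMSO control; EC170 reported as activity measure.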

COc1cc(OC)c2c(=O)[nH]c(-c3ccc(OCCNC(C)C)c(-c4ccc([S+](C)[O-])cc4)n3)nc2c1 (stereo not shown) [Example 41, 2-(5-(2-(Isopropylamino)ethoxy)-6-(4-(methylsulfinyl)phenyl)pyridin-2-yl)-5,7-dimethoxyquinazolin-4(3H)-one]
Active: MCP-1 Activity (IC50 < 30 μM) [1] | FRET activity (IC50 < 30 μM) [2] | c-myc activity (IC50 < 30 μM) [3] | ApoA-1 Activity (EC170 < 30 μM) [4]
